US20220380383A1, “NEUROPROTECTIVE PDI MODULATING SMALL MOLECULES AND METHODS OF USE THEREOF” (THE TRUSTEES OF COLUMBIA UNIVERSITY IN THE CITY OF NEW YORK, priority 2018, published 2022)
Values after ≈ are worked out from the molar mass of the structure shown.

System: PC12 mHTTQ103 cells
Assay: Rescue of PC12 cells from mHTTQ103-induced cell death
Assay type: cell-based, rat
Settings: Rattus norvegicus, PC-12; Tables 5-13; PC12 cells; read-out: EC50

Row | Structure (SMILES) | EC50
1 | O=c1c2ccccc2sn1-c1cccc(F)c1 [LC-31] | 1760 nM
2 | O=c1c2ccccc2sn1CN1CCN(c2ncccn2)CC1 [LC-12] | 416 nM
3 | O=c1[nH]sc2ncccc12 [LC-47, isothiazolo[5,4-b]pyridin-3(2H)-one] | > 50000 nM
4 | CC(C)(C)OC(=O)N1CCC(COc2nsc3ccccc23)CC1 [LC-16] | > 50000 nM
5 | O=c1c2ccccc2sn1-c1ccc(N2CCOCC2)cc1 [LC-27] | 1830 nM
6 | O=C(C1CC1)N1CCN(C(=O)n2sc3ccccc3c2=O)CC1 [LC-14] | > 50000 nM

Same assay, conditions: Tables 5-13; PC12 cells

Row | Structure (SMILES) | Max Viability (%)
7 | O=c1c2cccnc2sn1CCC1CCNCC1 [LC-56] | 14%
8 | S=c1ssc2ccccc12 [LC-49] | 9%
9 | C[C@H](c1ccccc1)n1sc2ncccc2c1=O [LC-58, (R)-2-(1-phenylethyl)isothiazolo[5,4-b]pyridin-3(2H)-one] | 14%
10 | O=c1[nH]sc2c(Cl)cccc12 [LC-38] | 8%
11 | O=c1[nH]sc2c(C(F)(F)F)cccc12 [LC-41] | 9%
12 | O=c1c2ccccc2sn1-c1cccc(F)c1 [LC-31] | 36%
13 | O=c1c2ccccc2sn1CN1CCN(c2ncccn2)CC1 [LC-12] | 68%
14 | O=c1c2cccnc2sn1CCN1CCCCC1 [LC-54] | 11%
15 | O=c1[nH]sc2ncccc12 [LC-47, isothiazolo[5,4-b]pyridin-3(2H)-one] | 36%
16 | CC(C)(C)OC(=O)N1CCC(COc2nsc3ccccc23)CC1 [LC-16] | 30%
17 | O=c1c2ccccc2sn1-c1ccc(N2CCOCC2)cc1 [LC-27] | 28%
18 | O=C(C1CC1)N1CCN(C(=O)n2sc3ccccc3c2=O)CC1 [LC-14] | 34%

Same assay, conditions: rescue from mHTTQ103 induced cell death

Row | Structure (SMILES) | PC12 cells EC50 | PC12 cells Max % Viability
19 | O=c1c2cccnc2sn1CCC1CCNCC1 [LC-56] | Not Active | 14.03%
20 | S=c1ssc2ccccc12 [LC-49] | Not Active | 8.75%
21 | C[C@H](c1ccccc1)n1sc2ncccc2c1=O [LC-58, (R)-2-(1-phenylethyl)isothiazolo[5,4-b]pyridin-3(2H)-one] | Not Active | 13.62%
22 | O=c1[nH]sc2c(Cl)cccc12 [LC-38] | Not Active | 7.63%
23 | O=c1[nH]sc2c(C(F)(F)F)cccc12 [LC-41] | Not Active | 9.16%
24 | O=c1c2ccccc2sn1-c1cccc(F)c1 [LC-31] | – | 36.24%
25 | O=c1c2ccccc2sn1CN1CCN(c2ncccn2)CC1 [LC-12] | – | 68.35%
26 | O=c1c2cccnc2sn1CCN1CCCCC1 [LC-54] | Not Active | 10.67%
27 | O=c1[nH]sc2ncccc12 [LC-47, isothiazolo[5,4-b]pyridin-3(2H)-one] | – | 36.31%
28 | CC(C)(C)OC(=O)N1CCC(COc2nsc3ccccc23)CC1 [LC-16] | – | 30.24%
29 | O=c1c2ccccc2sn1-c1ccc(N2CCOCC2)cc1 [LC-27] | – | 28.37%
30 | O=C(C1CC1)N1CCN(Cn2oc3ccccc3c2=O)CC1 [Oxy- LOC14] | Not Active | 8.16%
31 | O=C(C1CC1)N1CCN(C(=O)n2sc3ccccc3c2=O)CC1 [LC-14] | – | 33.58%

Target: T1, human catalytic PDI A1 a domain (PDIa) (Homo sapiens, UniProt P07237)
T1 construct: made in house; host or cells: Escherichia coli BL21-Gold (DE3)
T1 sequence (P07237 18-134): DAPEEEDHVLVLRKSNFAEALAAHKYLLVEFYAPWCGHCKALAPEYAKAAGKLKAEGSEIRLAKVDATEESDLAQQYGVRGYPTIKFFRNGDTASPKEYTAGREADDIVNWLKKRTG
Assay: Isothermal titration calorimetry (ITC) binding to PDIa
Settings: N/A = not active
Procedure: All ITC experiments were carried out at 25° C. on MicoCal Auto-ITC200 system (GE Healthcare). […] ITC titration experiments were carried out at 25° C. with 19 injections, 2 μl per injection, and 180 seconds between each injection. The reference cell power was set to 5 μcal/sec. A control experiment was performed for each compound, where each compound was titrated into buffer to account for heat released due to dilution. This background was subtracted from test data before a final dissociation constant was obtained. […] Gibbs free energy, ΔG, was calculated from equation ΔG=ΔH-TΔS. All other parameters, Ka, n, ΔH, ΔS, were determined directly from the titration data.
LOC14 analogs were designed and synthesized as described in the synthetic schemes. The analogs were evaluated for their binding to PDIa using isothermal titration calorimetry (ITC) (results of certain compounds are shown in FIGS. 1A-1E). Next, the analogs were tested for their ability to rescue PC12 cells from mHTT^Q103 induced cell death in a dose-dependent manner (results of certain compounds are shown in FIG. 2).

Row | Structure (SMILES) | ITC KD
32 | O=c1c2ccccc2sn1-c1cccc(F)c1 [LC-31] | KD = N/A irreversible or not active
33 | O=C(Nc1ccccc1)c1ccccc1S [LC-19] | KD = N/A irreversible or not active
34 | CC(C)(C)OC(=O)N1CCC(COc2nsc3ccccc23)CC1 [LC-16] | KD = N/A irreversible or not active
35 | O=c1c2ccccc2sn1-c1ccc(N2CCOCC2)cc1 [LC-27] | KD = N/A irreversible or not active
36 | O=C(C1CC1)N1CCN(C(=O)n2sc3ccccc3c2=O)CC1 [LC-14] | KD = N/A irreversible or not active

Other lines, results leading:

Row | ITC KD | Structure (SMILES)
37 | KD = N/A irreversible or not active | O=c1c2cccnc2sn1CCC1CCNCC1 [LC-56]
38 | KD = N/A irreversible or not active | S=c1ssc2ccccc12 [LC-49]
39 | KD = N/A irreversible or not active | O=c1[nH]sc2c(Cl)cccc12 [LC-38]
40 | KD = N/A irreversible or not active | O=c1[nH]sc2c(C(F)(F)F)cccc12 [LC-41]
41 | KD = N/A irreversible or not active | O=c1[nH]sc2ncccc12 [LC-47, isothiazolo[5,4-b]pyridin-3(2H)-one]

Same assay, conditions: N/A = not active; read-out: ITC KD

Row | Kd | Structure (SMILES)
42 | 0.3 nM | C[C@H](c1ccccc1)n1sc2ncccc2c1=O [LC-58, (R)-2-(1-phenylethyl)isothiazolo[5,4-b]pyridin-3(2H)-one]
43 | < 20 nM | O=c1c2cccnc2sn1CCN1CCCCC1 [LC-54]

Same assay, conditions: Tables 5-13; NA = not active; read-out: Kd

Row | Kd | Structure (SMILES)
44 | 0.3 nM | C[C@H](c1ccccc1)n1sc2ncccc2c1=O [LC-58, (R)-2-(1-phenylethyl)isothiazolo[5,4-b]pyridin-3(2H)-one]
45 | 140 ± 29 nM | O=c1c2ccccc2sn1CN1CCN(c2ncccn2)CC1 [LC-12]
46 | ≤ 20 nM | O=c1c2cccnc2sn1CCN1CCCCC1 [LC-54]

Same assay, conditions: Tables 6, 11, 12; read-out: Kd (nM), first value of two-site binding

Row | Structure (SMILES) | Kd
47 | O=c1c2ccccc2sn1Cc1ccccc1 [LC-5] | 43 nM

Same assay, conditions: Tables 6, 11, 12; read-out: Kd (nM), second value of two-site binding

Row | Structure (SMILES) | Kd
48 | O=c1c2ccccc2sn1Cc1ccccc1 [LC-5] | 2270 nM

System: not listed separately
Assay: Solubility (stock solvent)
Settings: not given

Row | Structure (SMILES) | Solubility
49 | O=c1c2ccccc2sn1-c1cccc(F)c1 [LC-31] | 100 mM in DMSO
50 | O=c1c2ccccc2sn1CN1CCN(c2ncccn2)CC1 [LC-12] | 100 mM in DMSO
51 | O=C(C1CC1)N1CCN(Cn2oc3ccccc3c2=O)CC1 [Oxy- LOC14] | 100 mM in DMSO
52 | O=c1c2ccccc2sn1Cc1ccccc1 [LC-5] | 100 mM in DMSO

Other lines, results leading:

Row | Solubility | Structure (SMILES)
53 | 100 mM in DMSO | O=c1c2cccnc2sn1CCC1CCNCC1 [LC-56]
54 | 100 mM in DMSO | S=c1ssc2ccccc12 [LC-49]
55 | 100 mM in DMSO | C[C@H](c1ccccc1)n1sc2ncccc2c1=O [LC-58, (R)-2-(1-phenylethyl)isothiazolo[5,4-b]pyridin-3(2H)-one]
56 | 100 mM in DMSO | O=c1[nH]sc2c(Cl)cccc12 [LC-38]
57 | 100 mM in DMSO | O=c1[nH]sc2c(C(F)(F)F)cccc12 [LC-41]
58 | 100 mM in DMSO | O=c1c2cccnc2sn1CCN1CCCCC1 [LC-54]

Same assay, conditions: Tables 5-13; solvent not given (DMSO in Table 1)

Row | Structure (SMILES) | Solubility
59 | O=c1c2ccccc2sn1-c1cccc(F)c1 [LC-31] | 100 mM (≈ 24.5 mg/mL)
60 | O=c1c2ccccc2sn1CN1CCN(c2ncccn2)CC1 [LC-12] | 100 mM (≈ 32.7 mg/mL)
61 | O=c1c2ccccc2sn1Cc1ccccc1 [LC-5] | 100 mM (≈ 24.1 mg/mL)

The remaining lines, values ahead:

Row | Solubility | Structure (SMILES)
62 | 100 mM (≈ 26.3 mg/mL) | O=c1c2cccnc2sn1CCC1CCNCC1 [LC-56]
63 | 100 mM (≈ 18.4 mg/mL) | S=c1ssc2ccccc12 [LC-49]
64 | 100 mM (≈ 25.6 mg/mL) | C[C@H](c1ccccc1)n1sc2ncccc2c1=O [LC-58, (R)-2-(1-phenylethyl)isothiazolo[5,4-b]pyridin-3(2H)-one]
65 | 100 mM (≈ 18.6 mg/mL) | O=c1[nH]sc2c(Cl)cccc12 [LC-38]
66 | 100 mM (≈ 21.9 mg/mL) | O=c1[nH]sc2c(C(F)(F)F)cccc12 [LC-41]
67 | 100 mM (≈ 26.3 mg/mL) | O=c1c2cccnc2sn1CCN1CCCCC1 [LC-54]
